Assay results from patent publication US5747235A, “Silver halide light sensitive emulsion layer having enhanced photographic sensitivity” (Eastman Kodak Company, priority 1996, dated 1998).

Legend:
Format in all cases: physicochemical
[1] = oxidation potential E2 of radical X by laser flash photolysis; conditions: Table C; by parent XY compound; < = more negative than
Excerpt: In this technique, the compound X-Y is oxidized by an electron transfer reaction initiated by a short laser pulse. The oxidized form of X-Y then undergoes the bond cleavage reaction to give the radical X^.cndot.. X^.cndot. is then allowed to interact with various electron acceptor compounds of known reduction potential. […] The experimental details are set forth more fully below. The oxidation potentials (E2) for radicals X^.cndot. for typical compounds useful in accordance with our invention are given in Table C. Where only limits on potentials could be determined, the following notation is used: <-0.90 V should be read as "more negative than -0.90 V" and >-0.40 V should be read as "less negative than -0.40 V".
(a) Oxidation Potential of Radical X.cndot.
The laser flash photolysis measurements were performed using a nanosecond pulsed excimer (Questek model 2620, 308 nm, ca. 20 ns, ca. 100 mJ) pumped dye laser (Lambda Physik model FL 3002). The laser dye was DPS (commercially available from Exciton Co.) in p-dioxane (410 nm, ca. 20 ns, ca. 10 mJ). The analyzing light source was a pulsed 150W xenon arc lamp (Osram XBO 150/W). The arc lamp power supply was a PRA model 302 and the pulser was a PRA model M-306. The pulser increased the light output by ca. 100 fold, for a time period of ca. 2-3 ms. The analyzing light was focussed through a small aperture (ca. 1.5 mm) in a cell holder designed to hold 1 cm^2 cuvettes. The laser and analyzing beams irradiated the cell from opposite directions and crossed at a narrow angle (ca. 15°). After leaving the cell, the analyzing light was collimated and focussed onto the slit (1 mm, 4 nm bandpass) of an ISA H-20 monochromator. The light was detected using 5 dynodes of a Hamamatsu model R446 photomultiplier. The output of the photomultiplier tube was terminated into 50 ohm, and captured using a Tektronix DSA-602 digital oscilloscope. The entire experiment is controlled from a personal computer.
The experiments were performed either in acetonitrile, or a mixture of 80% acetonitrile and 20% water. The first singlet excited state of a cyanoanthracene (A), which acted as the electron acceptor, was produced using the nanosecond laser pulse at 410 nm. […] Secondary electron transfer then occurred between B^.cndot.+ and the lower oxidation potential electron donor X-Y, to generate X-Y^.cndot.+ in high yield. For the investigations of the oxidation potentials of the radicals X^.cndot., typically the cyanoanthrancene concentration was ca. 2×10^-5 M to 10^-4 M the biphenyl concentration was ca. 0.1M. The concentration of the X-Y donor was ca. 10^-3 M. The rates of the electron transfer reactions are determined by the concentrations of the substrates. The concentrations used ensured that the A^.cndot.- and the X-Y^.cndot.+ were generated within 100 ns of the laser pulse. The radical ions could be observed directly by means of their visible absorption spectra. The kinetics of the photogenerated radical ions were monitored by observation of the changes in optical density at the appropriate wavelengths.
The reduction potential (Ered) of 9,10-dicyanoanthracene (DCA) is -0.91 V. In a typical experiment, DCA is excited and the initial photo-induced electron transfer from the biphenyl (B) to the DCA forms a DCA^.cndot.-, which is observed at its characteristic absorption maximum (λobs =705 nm), within ca. 20 ns of the laser pulse. Rapid secondary electron transfer occurs from X-Y to B^.cndot.+ to generate X-Y^.cndot.+, which fragments to give X^.cndot.. A growth in absorption is then observed at 705 nm with a time constant of ca. 1 microsecond, due to reduction of a second DCA by the X^.cndot.. The absorption signal with the microsecond growth time is equal to the size of the absorption signal formed within 20 ns.
If the oxidation potential of X^.cndot. is not sufficiently negative to reduce DCA, an estimate of its oxidation potential was obtained by using other cyanoanthracenes as acceptors. […]

[2] = oxidation potential E1 by cyclic voltammetry; conditions: Table A; 80%/20% acetonitrile/water, 0.1M lithium perchlorate, 25° C.
Protocol: Oxidation potentials are well known and can be found, for example, in "Encyclopedia of Electrochemistry of the Elements", Organic Section, Volumes XI-XV, A. Bard and H. Lund (Editors) Marcel Dekker Inc., NY. (1984). E1 can be measured by the technique of cyclic voltammetry. In this technique, the electron donating compound is dissolved in a solution of 80%/20% by volume acetonitrile to water containing 0.1M lithium perchlorate. Oxygen is removed from the solution by passing nitrogen gas through the solution for 10 minutes prior to measurement. A glassy carbon disk is used for the working electrode, a platinum wire is used for the counter electrode, and a saturated calomel electrode (SCE) is used for the reference electrode. Measurement is conducted at 25° C. using a potential sweep rate of 0.1 V/sec. The oxidation potential vs. SCE is taken as the peak potential of the cyclic voltammetric wave.

[3] = fragmentation rate constant kfr by laser flash photolysis; conditions: Table B; CH3CN/H2O (4:1)
Excerpt: The kinetics of the bond cleavage or fragmentation reaction can be measured by conventional laser flash photolysis. […] The specific experimental apparatus we used to measure fragmentation rate constants and radical oxidation potentials is described in detail below.
(b) Fragmentation Rate Constant Determination
These absorptions were used to determine the kinetics of the fragmentation reactions of the radical cations of the X-Y. Excitation of 9,10-dicyanoanthracene (DCA) in the presence of biphenyl and the X-Y donor, as described above, results in the formation of the DCA^.cndot.- and the X-Y^.cndot.+. By using a concentration of X-Y of ca. 10^-2 M, the X-Y^.cndot.+ can be formed within ca. 20 ns of the laser pulse. […] The monitoring wavelengths used were somewhat different for the different donors, but were mostly around 470-530 nm. […] Alternatively, when the decay rate of the X-Y^.cndot.+ was less than 10^6 s^-1, the solutions were purged with oxygen.
The experiments measuring the fragmentation rate constants were performed in acetonitrile with the addition of 20% water, so that all of the salts could be easily solubilized. Most experiments were performed at room temperature. […] When this happened, the fragmentation rate constants were measured as a function of temperature, and the rate constant at room temperature determined by extrapolation.

SMILES | Oxidation Potentials of Radicals (X*), E2 [1] | Oxidation Potential of X--Y, E1 [2] | kfr, Rate Constants for Decarboxylation of Radical Cations [3]
CN(C)c1ccc(CC(=O)O)cc1 [Compound 1] | > -0.5 V | 0.53 V vs SCE | ~ 3.0 × 10^5 s^-1
CCN(CC)c1ccc(C(O)C(=O)O)cc1 (centres unmarked) [Compound 2] | < -0.9 V | 0.50 V vs SCE | 
CN(C)c1ccc(C(O)C(=O)O)cc1 (centres unmarked) [Compound 3] |  |  | 550000 s⁻¹
CCN(CC)c1ccc(C(C)(O)C(=O)O)cc1 (centres unmarked) [Compound 4] |  | 0.49 V vs SCE | 
CN(C)c1ccc(C(C)(O)C(=O)O)cc1 (centres unmarked) [Compound 5] | < -0.9 V | 0.51 V vs SCE | 
O=C(O)COc1ccc(N(CC(=O)O)CC(=O)O)cc1 [Compound 9] |  | 0.38 V vs SCE | 
COc1ccc(N(CC(=O)O)CC(=O)O)cc1 [Compound 10] | < -0.9 V | 0.38 V vs SCE | 9300 s⁻¹
Cc1ccc(N(CC(=O)O)CC(=O)O)cc1 [Compound 11] | ~ -0.9 V | 0.46 V vs SCE | 1.6e+06 s⁻¹
O=C(O)CN(CC(=O)O)c1ccc(Cl)cc1 [Compound 12] |  | 0.58 V vs SCE | 
O=C(O)CN(CC(=O)O)c1ccccc1 [Compound 13] | ~ -0.85 V | 0.54 V vs SCE | 1.7e+07 s⁻¹
CCC(C)c1ccc(N(CC(=O)O)C(C)C(=O)O)cc1 (centres unmarked) [Compound 16] | ~ -0.9 V | 0.47 V vs SCE | 
CC(C(=O)O)N(CC(=O)O)c1ccc(C=O)cc1 (centres unmarked) [Compound 17] |  | 0.74 V vs SCE | 
CC(C(=O)O)N(CC(=O)O)c1ccc(S(=O)(=O)O)cc1 (centres unmarked) [Compound 18] |  | 0.70 V vs SCE | 
CCN(CC)S(=O)(=O)c1ccc(N(CC(=O)O)C(C)C(=O)O)cc1 (centres unmarked) [Compound 19] |  | 0.68 V vs SCE | 
COc1ccc(N(CC(=O)O)CC(=O)O)cc1OC [Compound 21] |  | 0.36 V vs SCE | 1000 s⁻¹
O=C(O)COc1ccccc1N(CC(=O)O)CC(=O)O [Compound 22] |  | 0.65 V vs SCE | 
COc1ccc(NC(C)C(=O)O)cc1 (centres unmarked) [Compound 23] |  | 0.37 V vs SCE | 
CC(Nc1ccccc1)C(=O)O (centres unmarked) [Compound 24] |  | 0.52 V vs SCE | 
CC(Nc1ccc(C(=O)O)cc1)C(=O)O (centres unmarked) [Compound 25] |  | 0.62 V vs SCE | 
CC(Nc1ccc(Cl)cc1)C(=O)O (centres unmarked) [Compound 26] |  | 0.51 V vs SCE | 
CC(Nc1ccc(C(N)=O)cc1)C(=O)O (centres unmarked) [Compound 27] |  | 0.62 V vs SCE | 
CCOC(=O)c1ccc(NC(C)C(=O)O)cc1 (centres unmarked) [Compound 28] |  | 0.61 V vs SCE | 
O=C(O)CC(Nc1ccccc1)C(=O)O (centres unmarked) [Compound 30] |  | 0.60 V vs SCE | 

SMILES | Oxidation Potentials of Radicals (X*), E2 [1] | Oxidation Potential of X--Y, E1 [2] | kfr, Rate Constants for Decarboxylation of Radical Cations [3]
O=C(O)CC(Nc1ccc(C(=O)O)cc1)C(=O)O (centres unmarked) [Compound 31] |  | 0.61 V vs SCE | 
CC(Nc1cccc(C(N)=O)c1)C(=O)O (centres unmarked) [Compound 32] |  | 0.58 V vs SCE | 
CC(C(=O)O)N(C)c1ccc(C(=O)O)cc1 (centres unmarked) [Compound 33] | < -0.9 V | 0.54 V vs SCE | 
CCN(c1cccc(C(N)=O)c1)C(C)C(=O)O (centres unmarked) [Compound 34] |  | 0.52 V vs SCE | 
CCCCN(c1ccc(C)cc1)C(C)C(=O)O (centres unmarked) [Compound 35] |  | 0.34 V vs SCE | 
CCCCN(c1ccccc1)C(C)C(=O)O (centres unmarked) [Compound 37] |  | 0.43 V vs SCE | 
CCCCN(c1ccc(C(=O)O)cc1)C(C)C(=O)O (centres unmarked) [Compound 38] |  | 0.48 V vs SCE | 
CCCCN(c1ccc(Cl)cc1)C(C)C(=O)O (centres unmarked) [Compound 39] |  | 0.40 V vs SCE | 
CCCCN(c1ccc(C)cc1)C(CC(=O)O)C(=O)O (centres unmarked) [Compound 40] |  | 0.38 V vs SCE | 1.3e+07 s⁻¹
CCCCN(c1ccccc1)C(CC(=O)O)C(=O)O (centres unmarked) [Compound 41] |  | 0.48 V vs SCE | 
Cc1ccc(N(CCC(=O)O)C[Si](C)(C)C)cc1 [Compound 42] | ~ -0.9 V | 0.30 V vs SCE | 
Cn1cc(C(O)C(=O)O)c2ccccc21 (centres unmarked) [Compound 43] | -0.89 V | 0.61 V vs SCE | 
CC(C(=O)O)c1cn(C)c2ccccc12 (centres unmarked) [Compound 45] | -0.56 V | 0.64 V vs SCE | 
Cn1cc(CC(=O)O)c2ccccc21 [Compound 46] | ~ -0.34 V | 0.68 V vs SCE | 
CC1CC(C)(C)N(CC(=O)O)c2ccccc21 (centres unmarked) [Compound 47] | ~ -0.9 V |  | > 10^7 s^-1
COc1cc(OC)c(C(O)C(=O)O)cc1OC (centres unmarked) [Compound 48] | < -0.9 V | 0.70 V vs SCE | 
O=C(O)C(O)c1ccccc1 (centres unmarked) [Compound 49] | -0.75 V | ~ 1.2 V vs SCE | 
COc1ccc(C(O)C(=O)O)cc1 (centres unmarked) [Compound 50] | < -0.9 V | ~ 1.05 V vs SCE | 
COc1ccc(C(O)C(=O)O)cc1OC (centres unmarked) [Compound 51] | < -0.9 V | 0.91 V vs SCE | 
CC(C(=O)O)N(c1ccccc1)c1ccccc1 (centres unmarked) [Compound 58] |  | 0.49 V vs SCE | 
CC(C)(Nc1ccccc1)C(=O)O [Compound 59] |  | 0.53 V vs SCE | 
Nc1nc(C(O)C(=O)O)cs1 (centres unmarked) [Compound 60] |  | 0.80 V vs SCE | 
